Laboratory results: the NIST ThermoML archive (doi:10.1021/je700499d)

Assays:
[1] = 101 kPa, Liquid
[2] = xn = mol fraction of the nth substance listed; conditions: 101 kPa, Liquid

OCCO [1,2-ethanediol]
[1]
Conditions	mass density [kg/m3]
293.15 K	1113.55
303.15 K	1106.82
313.15 K	1099.8
323.15 K	1092.59

OCCO [1,2-ethanediol] + OCCCCO
[2], x2 = 0
Conditions	mass density [kg/m3]
293.15 K	1113.55
303.15 K	1106.82
313.15 K	1099.8
323.15 K	1092.59

CC(O)CO (stereo not drawn) [1,2-propanediol]
[1]
Conditions	mass density [kg/m3]
293.15 K	1036.57
298.15 K	1032.86
303.15 K	1029.15
308.15 K	1025.57
313.15 K	1021.44
318.15 K	1017.59
323.15 K	1013.74
328.15 K	1009.71

CC(O)CO (stereo not drawn) [1,2-propanediol] + OCCCCO
[2], x2 = 0
Conditions	mass density [kg/m3]
293.15 K	1036.57
298.15 K	1032.86
303.15 K	1029.15
308.15 K	1025.57
313.15 K	1021.44
318.15 K	1017.59
323.15 K	1013.74
328.15 K	1009.71

OCCCCO [1,4-butanediol]
[1]
Conditions	mass density [kg/m3]
293.15 K	1016.37
298.15 K	1013.04
303.15 K	1009.96
308.15 K	1006.75
313.15 K	1003.55
318.15 K	1000.72
323.15 K	997.8
328.15 K	994.41

OCCCCO [1,4-butanediol] + CC(O)CO
mass density [kg/m3], [2]
Conditions	x1 = 0.0858	x1 = 0.1743	x1 = 0.2657	x1 = 0.3602	x1 = 0.4578	x1 = 0.5588	x1 = 0.6633	x1 = 0.7716	x1 = 0.8837	x1 = 1
293.15 K	1034.9	1033.19	1031.46	1029.77	1027.85	1025.52	1023.19	1020.85	1018.55	1016.37
298.15 K	1031.31	1029.67	1028	1026.34	1024.48	1022.17	1019.88	1017.57	1015.25	1013.04
303.15 K	1027.73	1026.21	1024.62	1023.01	1021.19	1018.94	1016.79	1014.47	1012.17	1009.96
308.15 K	1024.25	1022.83	1021.31	1019.74	1018	1015.76	1013.64	1011.33	1009.03	1006.75
313.15 K	1020.28	1019	1017.64	1016.12	1014.43	1012.35	1010.33	1008.06	1005.78	1003.55
318.15 K	1016.58	1015.49	1014.21	1012.83	1011.22	1009.28	1007.33	1005.16	1002.94	1000.72
323.15 K	1012.91	1011.97	1010.78	1009.47	1007.97	1006.13	1004.3	1002.18	1000.03	997.8
328.15 K	1009	1008.2	1007.11	1005.84	1004.39	1002.63	1000.83	998.81	996.69	994.41

OCCCCO [1,4-butanediol] + OCCCO
[2], x1 = 1
Conditions	mass density [kg/m3]
293.15 K	1016.37
298.15 K	1013.04
303.15 K	1009.96
308.15 K	1006.75
313.15 K	1003.55
318.15 K	1000.72
323.15 K	997.8
328.15 K	994.41

OCCCCO [1,4-butanediol] + OCCO
mass density [kg/m3], [2]
Conditions	x1 = 0.0711	x1 = 0.1469	x1 = 0.2279	x1 = 0.3147	x1 = 0.4078	x1 = 0.5081	x1 = 0.6164	x1 = 0.7337	x1 = 0.8611	x1 = 1
293.15 K	1102.71	1092.13	1081.71	1071.48	1061.52	1051.91	1042.67	1033.74	1024.96	1016.37
298.15 K	1099.09	1088.58	1078.21	1068.02	1058.12	1048.56	1039.34	1030.4	1021.64	1013.04
303.15 K	1096.06	1085.57	1075.22	1065.04	1055.16	1045.58	1036.35	1027.39	1018.61	1009.96
308.15 K	1092.51	1082.1	1071.84	1061.7	1051.85	1042.33	1033.12	1024.17	1015.41	1006.75
313.15 K	1089.15	1078.8	1068.56	1058.5	1048.65	1039.15	1029.95	1020.99	1012.22	1003.55
318.15 K	1085.69	1075.44	1065.32	1055.33	1045.62	1036.15	1027.01	1018.1	1009.36	1000.72
323.15 K	1082.18	1072.03	1061.97	1052.09	1042.43	1033.05	1023.96	1015.11	1006.4	997.8
328.15 K	1078.33	1068.25	1058.28	1048.46	1038.86	1029.53	1020.51	1011.66	1002.99	994.41

OCCCO [propan-1,3-diol]
[1]
Conditions	mass density [kg/m3]
293.15 K	1053.66
298.15 K	1050.29
303.15 K	1047.09
308.15 K	1043.92
313.15 K	1040.61
318.15 K	1037.6
323.15 K	1034.51
328.15 K	1031

OCCCO [propan-1,3-diol] + OCCCCO
mass density [kg/m3], [2]
Conditions	293.15 K	298.15 K	303.15 K	308.15 K	313.15 K	318.15 K	323.15 K	328.15 K
x2 = 0	1053.66	1050.29	1047.09	1043.92	1040.61	1037.6	1034.51	1031
x2 = 0.0858	1049.89	1046.56	1043.39	1040.26	1036.99	1034.04	1030.99	1027.53
x2 = 0.1743	1046.21	1042.87	1039.74	1036.61	1033.39	1030.48	1027.5	1024.08
x2 = 0.2657	1042.49	1039.2	1036.07	1032.95	1029.75	1026.88	1023.9	1020.5
x2 = 0.3602	1038.78	1035.48	1032.39	1029.26	1026.07	1023.21	1020.26	1016.86
x2 = 0.4578	1035.05	1031.77	1028.69	1025.57	1022.39	1019.53	1016.6	1013.22
x2 = 0.5523	–	–	1024.89	–	–	–	–	–
x2 = 0.5588	1031.27	1027.98	–	1021.77	1018.61	1015.78	1012.86	1009.51
x2 = 0.6574	–	–	1021.16	–	–	–	–	–
x2 = 0.6633	1027.52	1024.23	–	1018.03	1014.87	1012.06	1009.17	1005.8
x2 = 0.7669	–	–	1017.41	–	–	–	–	–
x2 = 0.7716	1023.77	1020.48	–	1014.27	1011.08	1008.27	1005.36	1001.99
x2 = 0.881	–	–	1013.68	–	–	–	–	–
x2 = 0.8837	1020.05	1016.74	–	1010.51	1007.33	1004.52	1001.61	998.24
